Assay results as given in US10828305B2 (SHANGHAI PHARMACEUTICALS HOLDING CO., LTD., priority 2016, dated 2020).

Experiments:
[1] = In vivo pharmacokinetics study in mice; settings: male, ICR, mouse, plasma, po, iv 3 mg/kg, intragastric 10 mg/kg, read-out: Absolute bioavailability F
Description: (§1) In Vivo Pharmacokinetics Study in Rats and Mice
24 male ICR mices, with weight of 18 to 22 g. The mice were fasted for 12 to 16 hours before the experiment, without restricting drinking water. 24 mice were divided into 2 groups, 12 mice for each group. The first group was intravenously administrated with test compound (10 mL/kg, 0.3 mg/mL) at a dose of 3 mg/kg, 0.4 mL blood sample was taken from venous plexus of the fundus of the eye into a pre-heparinized centrifuge tube (sodium heparin solution 10 μL/tube) before administration and 2, 5, 15, 30, 60, 90, 120, 240, 360, 480, 720, 1440 min after administration, respectively. The second group was dosed with compound (20 mL/kg, 0.5 mg/mL) by intragastric administration at a dose of 10 mg/kg, 0.4 mL blood sample was taken from venous plexus of the fundus of the eye into a pre-heparinized centrifuge tube (sodium heparin solution 10 μL/tube) before administration and 5, 15, 30, 60, 90, 120, 240, 360, 480, 720, and 1440 min after administration, respectively. 2 to 3 time points were taken for each mouse. […]
(§2) Taking 50 μL plasma sample of rat or mouse, adding […] acetonitrile containing internal standard (propranolol, 2.5 ng/ml) to precipitate protein. Vortexing for 10 min, centrifuging at 6000 g for 10 min, the supernatant was taken and diluted with mobile phase in a 96-well plate, the drug concentration in plasma was measured by UPLC/MS-MS. […]

[2] = In vivo pharmacokinetics study in rats; settings: male, SD, rat, plasma, po, iv 3 mg/kg, intragastric 6 mg/kg, read-out: Absolute bioavailability F
Description: as §1
5 male SD rats, with weight of 180 to 220 g. The rats were fasted for 12 to 16 hours before the experiment, without restricting drinking water. Two rats were intravenously administrated with dosing solution (3 mL/kg, 1 mg/mL) at a dose of 3 mg/kg, 0.4 mL blood sample was taken from venous plexus of the fundus of the eye into a pre-heparinized centrifuge tube (sodium heparin solution 10 μL/tube) before administration and 2, 5, 15, 30, 60, 90, 120, 240, 360, 480, 720, 1440 min after administration, respectively. Three rats were intragastricly administrated with dosing suspension (8 mL/kg, 0.75 mg/mL) at a dose of 6 mg/kg, 0.4 mL blood sample was taken from venous plexus of the fundus of the eye into a pre-heparinized centrifuge tube (sodium heparin solution 10 μL/tube) before administration and 5, 15, 30, 60, 90, 120, 240, 360, 480, 720, and 1440 min after administration, respectively. […]
as §2

CYP2C9 = target: T1, CYP2C9 (Homo sapiens, UniProt P11712); assay: Direct inhibition of CYP2C9, human liver microsome; type: in vitro ADME; settings: probe diclofenac, read-out: IC50 2C9 (Diclofenac)
T1 construct: from tissue; host or cells: human liver microsomes
T1 sequence (P11712 whole entry): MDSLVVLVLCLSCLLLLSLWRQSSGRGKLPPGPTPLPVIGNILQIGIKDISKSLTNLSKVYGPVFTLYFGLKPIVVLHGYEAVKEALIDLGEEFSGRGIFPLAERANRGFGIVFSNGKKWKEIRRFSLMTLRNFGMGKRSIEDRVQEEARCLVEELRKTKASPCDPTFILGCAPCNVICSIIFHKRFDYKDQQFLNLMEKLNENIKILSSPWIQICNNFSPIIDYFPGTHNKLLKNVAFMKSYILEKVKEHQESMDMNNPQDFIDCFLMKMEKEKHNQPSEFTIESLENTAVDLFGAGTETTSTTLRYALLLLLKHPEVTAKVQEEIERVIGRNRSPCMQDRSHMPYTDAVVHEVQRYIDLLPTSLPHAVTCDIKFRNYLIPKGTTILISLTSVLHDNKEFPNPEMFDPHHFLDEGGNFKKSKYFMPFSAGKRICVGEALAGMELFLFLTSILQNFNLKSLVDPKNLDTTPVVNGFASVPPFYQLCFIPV
Description: Research on Direct Inhibition of CYP3A4, CYP2D6, CYP2C9, CYP2C19, CYP1A2
100 μL human liver microsome (with final concentration of 0.2 mg/mL) was used for direct inhibition under warm incubation, the positive control system contained NADPH (with final concentration of 1 mmol/L), a mixture of positive inhibitors (ketoconazole 0.01 to 10 μmol/L, quinidine 0.01 to 10 μmol/L, sulfaphenazole 0.1 to 100 μmol/L, tranylcypromine 1 to 1000 μmot/L, α-naphthoflavone 0.01 to 10 μmol/L), and a substrate mixture (with final concentration of midazolam 10 μmol/L, testosterone 100 μmol/L, dextromethorphan 10 μmol/L, diclofenac 20 μmol/L, S-mephenytoin 50 μmol/L, phenacetin 100 μmol/L), and the reaction was terminated after incubation for 20 min. The positive inhibitor was replaced with 0.1 to 100 μmol/L test compound in the test compound group. The reaction was terminated with acetonitrile containing 0.11 μg/mL internal standard tinidazole (1:3), vortexed for 10 min, centrifuged at 6000×g for 10 min, 50 μL supernatant was taken and put into a 96-well plate for injection.
(§3) In this experiment, IC50 of inhibition of the compound on the enzyme was calculated by measuring relative production of the probe metabolite. The activity of CYP3A4 was simultaneously characterized by two probes of midazolam and testosterone.

CYP2B6 = target: T2, CYP2B6 (Homo sapiens, UniProt P20813); assay: Direct inhibition of CYP2B6, human liver microsome; type: in vitro ADME; settings: probe bupropion, read-out: IC50 2B6 (Bupropion)
T2 construct: from tissue; host or cells: human liver microsomes
T2 sequence (P20813 1-491): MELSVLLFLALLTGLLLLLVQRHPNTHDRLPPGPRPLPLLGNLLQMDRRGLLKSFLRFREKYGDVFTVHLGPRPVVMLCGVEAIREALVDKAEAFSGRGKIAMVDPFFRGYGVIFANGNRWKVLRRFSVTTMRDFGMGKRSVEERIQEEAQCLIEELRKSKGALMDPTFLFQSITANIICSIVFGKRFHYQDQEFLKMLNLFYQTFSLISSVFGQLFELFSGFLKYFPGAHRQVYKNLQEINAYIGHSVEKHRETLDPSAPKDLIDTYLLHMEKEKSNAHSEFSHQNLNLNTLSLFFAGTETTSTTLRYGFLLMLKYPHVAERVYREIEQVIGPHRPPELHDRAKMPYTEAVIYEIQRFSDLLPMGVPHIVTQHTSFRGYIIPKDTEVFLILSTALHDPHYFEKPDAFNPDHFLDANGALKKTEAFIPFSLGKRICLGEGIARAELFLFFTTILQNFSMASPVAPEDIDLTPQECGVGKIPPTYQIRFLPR
Description: Research on Direct Inhibition of CYP2B6 and CYP2C8
100 μL human liver microsome (with final concentration of 0.2 mg/mL) was used for direct inhibition under warm incubation. The positive control system contained NADPH (with final concentration of 1 mmol/L), a mixture of positive inhibitors (ketoconazole 0.05 to 50 μmol/L, montelukast sodium 0.001 to 1 μmol/L), and a substrate mixture (with final concentration of amfepramone 50 μmol/L and paclitaxel 5 μmol/L), and the reaction was terminated after incubation for 20 min. The positive inhibitor was replaced with 0.1 to 100 μmol/L test compound in the test compound group. The reaction was terminated with acetonitrile containing […] internal standard tinidazole (1:3), vortexed for 10 min, centrifuged at 6000×g for 10 min, and 50 μL supernatant was taken and put into a 96-well plate for injection.
as §3

Row | Structure (SMILES) | bioavailability [1] | bioavailability [2] | IC50 (CYP2C9) | IC50 (CYP2B6)
1 | Cc1cc(Nc2ncnc3ccc(NC4=NC(C)(C)CO4)cc23)ccc1Oc1ccn2ncnc2c1 [ARRY-380, reference compound] | 61% | 9.5% | 13 µM | > 100 µM
2 | Cc1cc(Nc2ncnc3ccc(NC4=NC(C)(C)CO4)cc23)ccc1Oc1cc2nncn2cn1 [Embodiment 4, N^4-(4-([1,2,4]triazolo[4,3-c]pyrimidin-7-yloxy)-3-methylphenyl)-N^6-(4,4-dimethyl-4,5-dihydrooxazol-2-yl)quinazoline-4,6-diamine] | 96.2% | 15.4% | 53 µM | > 100 µM
